Source: patent US20230201226A1, “COMBINATION THERAPY FOR REDUCING DRUG-INDUCED NEPHROTOXICITY, DYSLIPIDEMIA AND HYPERGLYCEMIA” (Yissum Research Development Company of the Hebrew …, priority 2020, published 2023)

How the values were obtained:
[1] = system: human proximal tubule cells (hPTCs); conditions: 48 hours
[2] = system: Human primary proximal tubule cells (hPTC); experiment: Phospholipidosis (Red Phospholipidosis reagent) and neutral lipid (Green LipidTox) staining of kidney cells exposed to kidney damaging agents; format: cell-based; conditions: 48 hours
Method: Testing the effect of combination therapy on human kidney cells exposed to kidney damaging agents—Human primary proximal tubule cells (hPTC) were seeded at density of 10,000 cells/cm^2 in a black 96-well plate. When the cells reach 80% density, treatments were induced. […] The drugs were induced either alone (controls) or in combination with Empagliflozin (SGLT2i) at 5 μM or Fenofibrate at 20 μM, themselves in combination with Quercetin at 20 μM. All different solutions included 1× Red Phospholipidosis staining reagent as well. hPTC were incubated with the different combinations for 48 hours at 37° C. 5% CO2 […]. After 48 hours, the media were removed and replaced with Green LipidTox stain to stain for neutral lipids in green (diluted at 1:200 in hPTC medium). After 45 minutes of incubation at 37° C., the plate was mounted onto a Zeiss epifluorescent microscope for quantification. Each condition was tested in three biological replicates, and light settings were the same for all the images. Images were analyzed with ImageJ. […]

| Compound | survival of human proximal tubule cells (hPTCs) ([1]; co-administration with 1 mM gentamicin, Empagliflozin 5 μM or Fenofibrate 20 μM) | prevention of Cyclosporine A, Cisplatin and Gentamicin induced lipotoxicity by co-administration ([2]; Cyclosporine A 1 μM, Cisplatin 1 μM or Gentamicin 1 mM, Empagliflozin 5 μM or Fenofibrate 20 μM) | cell death ([1]; hPTC, 1 mM gentamicin by itself) | induced lipotoxicity of the kidneys (phospholipids and neutral lipids) ([2]; kidney damaging agent alone: Cyclosporine A 1 μM, Cisplatin 1 μM, Gentamicin 1 mM) |
| --- | --- | --- | --- | --- |
| OC[C@H]1O[C@@H](c2ccc(Cl)c(Cc3ccc(O[C@H]4CCOC4)cc3)c2)[C@H](O)[C@@H](O)[C@@H]1O [empagliflozin, Empagliflozin] | dramatically increased the survival | prevented |  |  |
| Gentamicin |  |  | induced massive cell death | induced lipotoxicity |
